Experimental data as given in the supplement of paper PMC10331698.
± gives the standard deviation of the averaged measurements.

What was measured:
Assay in all cases: level (log10 ratio to DMSO vehicle control); higher = higher biomarker level / cell amount than vehicle control
Details in all cases: in DMSO
[1] = compound: OCC(F)(F)OC(F)(F)C(F)(F)OC(F)(F)CO [1H,1H,8H,8H-Perfluoro-3,6-dioxaoctane-1,8-diol]
Procedure: (§1)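 BioMAP Diversity Plus panel of 12 human primary cell co-culture systems (3C, 4H, LPS, SAg, BT, BF4T, BE3C, CASM3C, HDF3CGF, KF3CT, MyoF, Mphg). Compounds were added 1 h before stimulation and left for 24 h (MyoF 48 h; BT 72 h for soluble read-outs or 6 d for IgG). Biomarkers were read by ELISA, cytotoxicity by SRB, PBMC viability and proliferation by Alamar Blue. Each well value was divided by the mean of 8 DMSO control wells on the same plate and log10 transformed; duplicate blinded samples were tested at 4 concentrations.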

[2] = compound: NCC(F)(F)C(F)(F)C(F)(F)C(F)(F)C(F)(F)C(F)(F)C(F)(F)F [1H,1H-Perfluorooctylamine]
Procedure: as §1

[3] = compound: O=C(O)C(F)(F)OC(F)(F)C(F)(F)OC(F)(F)C(=O)O [Perfluoro-3,6-dioxaoctane-1,8-dioic acid]
Procedure: as §1

Perfluoropropanoic acid = compound: O=C(O)C(F)(F)C(F)(F)F [Perfluoropropanoic acid]
Procedure: as §1

[4] = compound: CCN(CCO)S(=O)(=O)C(F)(F)C(F)(F)C(F)(F)C(F)(F)C(F)(F)C(F)(F)C(F)(F)C(F)(F)F [N-Ethyl-N-(2-hydroxyethyl)perfluorooctanesulfonamide]
Procedure: as §1

Perfluorobutanoic acid = compound: O=C(O)C(F)(F)C(F)(F)C(F)(F)F [Perfluorobutanoic acid]
Procedure: as §1

[5] = compound: C=CC(F)(F)C(F)(F)C(F)(F)C(F)(F)C(F)(F)C(F)(F)C(F)(F)C(F)(F)C=C [1,8-Divinylperfluorooctane]
Procedure: as §1

Row | Test System | level (log10) ([1]; 6700 nM) | level (log10) ([1]; 20000 nM) | level (log10) ([1]; 60000 nM) | level (log10) ([2]; 6700 nM) | level (log10) ([2]; 20000 nM) | level (log10) ([2]; 60000 nM) | level (log10) ([3]; 6700 nM) | level (log10) ([3]; 20000 nM) | level (log10) ([3]; 60000 nM) | level (log10) (Perfluoropropanoic acid; 6700 nM) | level (log10) (Perfluoropropanoic acid; 20000 nM) | level (log10) (Perfluoropropanoic acid; 60000 nM) | level (log10) ([4]; 6700 nM) | level (log10) ([4]; 20000 nM) | level (log10) (Perfluorobutanoic acid; 6700 nM) | level (log10) (Perfluorobutanoic acid; 20000 nM) | level (log10) (Perfluorobutanoic acid; 60000 nM) | level (log10) ([5]; 6700 nM) | level (log10) ([5]; 20000 nM)
1 | MyoF:Collagen IV | -0.021 ± 0.013 | -0.0125 ± 0.015 | 0.0065 ± 0.032 | -0.0035 ± 0.018 | -0.009 ± 0.016 | -0.0055 ± 0.0035 | -0.0165 ± 0.013 | -0.011 ± 0.031 | 0.0295 ± 0.00071 | 0.0075 ± 0.0021 | -0.007 ± 0.011 | 0.0145 ± 0.019 | -0.0665 ± 0.013 | 0.078 ± 0.035 | -0.032 ± 0.051 | -0.0215 ± 0.04 | -0.0055 ± 0.018 | -0.023 ± 0.0085 | 0.0115 ± 0.044
2 | MyoF:Decorin | -0.0155 ± 0.011 | 0.003 ± 0.0071 | 0.02 ± 0.02 | -0.016 ± 0.011 | -0.025 ± 0.017 | -0.027 ± 0.0099 | -0.0045 ± 0.011 | -0.01 | -0.0005 ± 0.013 | -0.0255 ± 0.073 | 0.002 ± 0.11 | 0.046 ± 0.089 | -0.0095 ± 0.016 | -0.085 ± 0.028 | -0.013 ± 0.0014 | -0.0105 ± 0.039 | -0.0025 ± 0.00071 | 0.0075 ± 0.013 | 0.0335 ± 0.022
3 | MyoF:MMP-1 | -0.022 ± 0.028 | -0.0115 ± 0.011 | 0.024 ± 0.058 | -0.0095 ± 0.016 | -0.0395 ± 0.012 | -0.0055 ± 0.025 | -0.0065 ± 0.0092 | -0.0155 ± 0.019 | 0.0225 ± 0.067 | -0.0675 ± 0.11 | -0.0565 ± 0.06 | 0.05 ± 0.095 | 0.069 ± 0.021 | 0.426 ± 0.052 | -0.027 ± 0.0028 | -0.0135 ± 0.016 | -0.0005 ± 0.04 | -0.054 ± 0.037 | 0.034 ± 0.099
4 | MyoF:PAI-I | -0.008 ± 0.0099 | -0.008 ± 0.017 | 0.0025 ± 0.0078 | 0 ± 0.016 | -0.002 ± 0.014 | -0.005 ± 0.013 | 0.003 ± 0.013 | -0.0005 ± 0.0064 | 0.005 ± 0.0085 | -0.0035 ± 0.013 | -0.0165 ± 0.0035 | -0.0035 ± 0.012 | -0.0065 ± 0.0064 | -0.0085 ± 0.018 | -0.008 ± 0.0014 | -0.0055 ± 0.018 | -0.0105 ± 0.013 | 0.003 ± 0.0071 | 0.006 ± 0.0071
5 | MyoF:SRB | -0.0045 ± 0.00071 | -0.001 ± 0.0014 | -0.017 ± 0.013 | 0.0035 ± 0.0021 | -0.002 ± 0.0057 | 0.0005 ± 0.005 | 0 ± 0.011 | -0.007 ± 0.0042 | 0.0065 ± 0.0078 | 0.0015 ± 0.012 | 0.0005 ± 0.011 | -0.0015 ± 0.0092 | -0.0265 ± 0.00071 | -0.175 ± 0.07 | 0.0005 ± 0.0035 | -0.001 ± 0.0085 | -0.0125 ± 0.0035 | 0.0165 ± 0.013 | 0.006 ± 0.0057
6 | MyoF:TIMP-1 | -0.0015 ± 0.036 | 0.038 ± 0.025 | 0.052 ± 0.03 | 0.0045 ± 0.0092 | 0.01 ± 0.025 | -0.0005 ± 0.0021 | 0.0065 ± 0.056 | 0.02 ± 0.037 | 0.026 ± 0.0014 | 0.0645 ± 0.077 | 0.05 ± 0.047 | 0.0465 ± 0.12 | -0.112 ± 0.011 | -0.0885 ± 0.0092 | -0.039 ± 0.055 | -0.02 ± 0.02 | 0.0035 ± 0.0092 | -0.0315 ± 0.054 | 0.01 ± 0.076
7 | MyoF:alpha-SM Actin | 0.003 ± 0.0057 | 0.013 ± 0.017 | 0.004 ± 0.018 | -0.017 ± 0.075 | 0.0285 ± 0.0078 | 0.042 | 0.001 | -0.0125 ± 0.013 | 0.0245 ± 0.0021 | -0.031 ± 0.035 | -0.013 ± 0.017 | 0.011 ± 0.0057 | 0.0845 ± 0.023 | -0.235 ± 0.057 | 0.006 ± 0.037 | 0.003 ± 0.031 | 0.024 ± 0.058 | -0.016 ± 0.0042 | -0.0155 ± 0.028
8 | MyoF:bFGF | -0.001 ± 0.016 | 0.0075 ± 0.011 | 0.004 ± 0.0057 | 0.0095 ± 0.028 | 0 ± 0.014 | 0.019 ± 0.0099 | 0.0075 ± 0.021 | 0.001 ± 0.0099 | 0 ± 0.018 | -0.0175 ± 0.016 | 0.01 ± 0.0028 | 0.015 ± 0.038 | -0.01 ± 0.016 | -0.025 ± 0.0042 | 0.0025 ± 0.0078 | 0.0095 ± 0.0078 | 0.0155 ± 0.0035 | 0.001 ± 0.0099 | 0.012 ± 0.02
9 | lMphg:CCL2/MCP-1 | -0.0115 ± 0.0035 | -0.0145 ± 0.012 | 0.0155 ± 0.012 | -0.03 ± 0.0099 | -0.0245 ± 0.016 | -0.0275 ± 0.04 | -0.0165 ± 0.021 | -0.019 ± 0.027 | -0.008 ± 0.0057 | -0.021 ± 0.017 | -0.0045 ± 0.0064 | 0.002 ± 0.013 | 0.007 ± 0.034 | 0.002 ± 0.023 | -0.0205 ± 0.021 | -0.0165 ± 0.018 | 0.0135 ± 0.022 | -0.0195 ± 0.013 | 0.0125 ± 0.03
10 | lMphg:CCL3/MIP-1alpha | -0.004 ± 0.04 | -0.0025 ± 0.022 | 0.0215 ± 0.029 | 0 ± 0.0099 | -0.0215 ± 0.016 | 0.0035 ± 0.044 | -0.036 ± 0.025 | -0.045 ± 0.0042 | -0.027 ± 0.04 | -0.0105 ± 0.023 | -0.0235 ± 0.0021 | 0.0115 ± 0.013 | 0.0325 ± 0.035 | 0.112 ± 0.013 | -0.0075 ± 0.00071 | -0.0115 ± 0.018 | 0.0355 ± 0.047 | -0.019 ± 0.0071 | 0.0065 ± 0.046
11 | lMphg:CD40 | -0.015 ± 0.02 | -0.0845 ± 0.0035 | -0.0265 ± 0.0035 | 0.0025 ± 0.005 | -0.0125 ± 0.035 | -0.069 ± 0.054 | -0.03 ± 0.017 | -0.0085 ± 0.013 | -0.0105 ± 0.016 | -0.0045 ± 0.021 | -0.0145 ± 0.023 | 0.004 ± 0.0028 | -0.025 ± 0.017 | -0.0335 ± 0.018 | -0.049 ± 0.11 | -0.025 ± 0.038 | 0.023 ± 0.068 | -0.04 ± 0.0099 | -0.0195 ± 0.032
12 | lMphg:CD62E/E-Selectin | -0.0235 ± 0.019 | 0.004 ± 0.033 | -0.003 ± 0.03 | 0.0195 ± 0.023 | 0.0085 ± 0.015 | 0.013 ± 0.03 | -0.027 ± 0.034 | -0.018 ± 0.016 | 0.0185 ± 0.0092 | -0.008 ± 0.0057 | -0.004 ± 0.0099 | 0.0385 ± 0.0035 | 0.0935 ± 0.0078 | 0.14 ± 0.0099 | 0.0155 ± 0.036 | 0.027 ± 0.041 | 0.0175 ± 0.023 | -0.006 ± 0.024 | -0.054 ± 0.038
13 | lMphg:CD69 | -0.0305 ± 0.0064 | -0.041 ± 0.025 | -0.0145 ± 0.13 | -0.039 ± 0.0099 | -0.0475 ± 0.019 | -0.0265 ± 0.00071 | -0.0565 ± 0.015 | 0 ± 0.054 | -0.024 ± 0.098 | 0.0105 ± 0.059 | -0.022 ± 0.025 | 0.0045 ± 0.029 | -0.0715 ± 0.012 | -0.129 ± 0.0099 | 0.0505 ± 0.066 | 0.0455 ± 0.0021 | 0.087 ± 0.1 | -0.013 ± 0.0042 | -0.011 ± 0.014
14 | lMphg:CD106/VCAM-1 | -0.0355 ± 0.05 | -0.0035 ± 0.012 | -0.028 ± 0.034 | -0.005 ± 0.0014 | -0.003 ± 0.014 | -0.0165 ± 0.005 | -0.013 ± 0.0071 | -0.0165 ± 0.0021 | -0.0165 ± 0.036 | -0.008 ± 0.013 | 0.0185 ± 0.0035 | 0.023 ± 0.016 | -0.037 ± 0.03 | -0.0435 ± 0.035 | -0.0165 ± 0.025 | -0.007 ± 0.034 | -0.0085 ± 0.022 | -0.014 ± 0.018 | -0.016 ± 0.016
15 | lMphg:CXCL8/IL-8 | 0.0065 ± 0.079 | 0.007 ± 0.072 | 0.0235 ± 0.1 | 0.008 ± 0.031 | 0.018 ± 0.025 | 0.01 ± 0.013 | -0.024 ± 0.027 | 0 ± 0.068 | -0.002 ± 0.085 | 0.0055 ± 0.0078 | 0.017 ± 0.018 | 0.0175 ± 0.043 | -0.047 ± 0.048 | -0.032 ± 0.016 | -0.022 ± 0.014 | -0.017 ± 0.0028 | 0.0165 ± 0.04 | 0.0055 ± 0.026 | 0.0125 ± 0.064
